Test results: article PMC5034536, “Molecular insights into substrate recognition and catalytic mechanism of the chaperone and FKBP peptidyl-prolyl isomerase SlyD” (BMC Biology, 2016)
Values joined by “and” are separate entries in the source; they are usually repeats but may differ in a detail not shown here. Equal entries are not always repeated. Where two headings read alike, the source gives them in different places. No end group written: not given here.

Assays:
[1] = molecular target: T1, TtSlyDFL (full-length SlyD from Thermus thermophilus) (Thermus thermophilus, UniProt Q5SLE7); assay: ITC binding of peptides to full-length TtSlyD; settings: for ΔH1 / –T · ΔS1 / N1: site 1 (IF domain)
T1 sequence (Q5SLE7 1-149): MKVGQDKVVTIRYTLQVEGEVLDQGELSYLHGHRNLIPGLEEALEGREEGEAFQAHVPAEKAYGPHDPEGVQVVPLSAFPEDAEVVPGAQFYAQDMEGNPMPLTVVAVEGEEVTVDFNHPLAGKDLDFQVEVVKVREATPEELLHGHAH
Description: ITC measurements were performed on iTC200 or VP-ITC instruments (GE Healthcare, Chalfont St. Giles, UK). The calorimetric cell (with a total cell volume of 220 μl in the iTC200, or 1400 μl in the VP-ITC) contained 50–200 μM TtSlyDFL dissolved in 20 mM HEPES, 100 mM NaCl, pH 7.5. Peptide samples of 700–2000 μM were titrated into the cell at 20 °C (VP-ITC) or 25 °C (iTC200). The heat generated after each ligand injection was obtained by integration of the calorimetric signal. Resulting binding isotherms were analyzed according to a one-site or two-site binding site model using the Origin software (OriginLab Corp., Northampton, MA, USA).

[2] = molecular target: TtSlyDΔIF (IF domain replaced by the flap loop from human FKBP12) (Thermus thermophilus, UniProt Q5SLE7); format: binding; settings: ITC one-site model (FKBP domain), 25 °C; for Kd: read-out: KD2
[3] = Relative population of the cis form of the peptide by NMR; format: physicochemical; settings: free S2-P25A peptide with 13C-labeled proline (P29); comparison of cis and trans NMR intensities; 25 °C
Description: (§1) Having validated the method, we next turned to the longer unmodified peptides of interest here. […] The ^13C shifts of proline in the S2-P25A peptide show the same characteristics as an isolated proline amino acid. […] We determined apparent rate constants for TtSlyDFL and TtSlyDΔIF as a function of peptide concentration (Fig. 7b). The resulting kcat/KM value was 368 ± 4 μM^–1s^–1 for TtSlyDFL, which is a factor of 100–1000 higher compared to results obtained previously for various members of the SlyD family using tetrapeptides or unfolded proteins, and even exceeds those generally reported for FKBPs and other PPIases. […] However, the difference in kcat/KM between TtSlyDFL and TtSlyDΔIF is much smaller than what has been observed using protein substrates, and may simply relate to the lower binding affinity of TtSlyDΔIF relative to TtSlyDFL (in this scenario, KM would be larger for TtSlyDΔIF). In the case of TtSlyDFL we could separate the two parameters, yielding kcat = (0.7 ± 0.1) 10^6 s^–1 and KM = 2.0 ± 0.4 mM.
Activity studies using the 15-residue-long S2-P25A peptide utilized a sample with a uniformly ^13C-labeled proline residue. ^1H–^13C HSQC experiments were used to separate the peptide signals in two dimensions, such that the cis and trans forms could both be detected without overlap. […]

[4] = tested on: TtSlyDFL; assay: Michaelis-Menten analysis with S2-P25A peptide by NMR lineshape analysis; format: biochemical, Thermus thermophilus; settings: 25 °C
Description: as §1
(§2) Lineshape analysis was performed using MATLAB.
(§3) Activity studies using the 15-residue-long S2-P25A peptide utilized a sample with a uniformly ^13C-labeled proline residue. ^1H–^13C HSQC experiments were used to separate the peptide signals in two dimensions, such that the cis and trans forms could both be detected without overlap. […] One-dimensional ^1H slices of the β and γ protons for the cis and trans forms were extracted from the two-dimensional spectrum, and lineshape analysis was applied. Michaelis-Menten-like studies were performed using a fixed concentration of TtSlyDFL of 0.2 μM and peptide concentrations ranging from 10 to 1000 μM.

[5] = tested on: TtSlyDΔIF; assay: as above; format: biochemical, Thermus thermophilus; settings: 25 °C
Description: as §1, §2, §3

[6] = ITC two-site model, site 2 (FKBP domain) stoichiometry, 25 °C
[7] = ITC two-site model, site 2 (FKBP domain), 25 °C
[8] = ITC two-site model, 20 °C, wild-type TtSlyDFL
[9] = ITC two-site model, site 2 (FKBP domain), 20 °C, wild-type TtSlyDFL
[10] = ITC single binding site model, 25 °C
[11] = ITC two-site model, 25 °C, 5 % DMSO
[12] = ITC two-site model, site 2 (FKBP domain), 25 °C, 5 % DMSO
[13] = S2-P25A peptide as substrate, NMR lineshape analysis

Substance: GHQTRYWNPKMKPFI-NH2 [S2-minus1]
- ΔH1 ([1]; ITC two-site model, 25 °C): –16.6 ± 0.12 kcal/mol
- –T · ΔS1 ([1]; ITC two-site model, 25 °C): 8.2 kcal/mol
- N2 [1, 6]: 0.82 ± 0.02
- ΔH2 [1, 7]: –11.1 ± 0.29 kcal/mol
- –T · ΔS2 [1, 7]: 4.1 kcal/mol

Substance: KAGVHFGHQTRYWNP-NH2 [S2-minus3]
- ΔH1 ([1]; ITC two-site model, 25 °C): –17.0 ± 0.73 kcal/mol
- –T · ΔS1 ([1]; ITC two-site model, 25 °C): 9.4 kcal/mol
- N2 [1, 6]: 1.17 ± 0.06
- ΔH2 [1, 7]: –2.1 ± 1.41 kcal/mol
- –T · ΔS2 [1, 7]: –4.8 kcal/mol

Substance: KMKPFIFGARNKVHI-NH2 [S2-plus2]
- ΔH1 ([1]; ITC two-site model, 25 °C): –13.1 ± 0.14 kcal/mol
- –T · ΔS1 ([1]; ITC two-site model, 25 °C): 3.9 kcal/mol
- N2 [1, 6]: 0.75 ± 0.04
- ΔH2 [1, 7]: –8.4 ± 0.39 kcal/mol
- –T · ΔS2 [1, 7]: 1.2 kcal/mol

Substance: RYWNPKMKPFIFG-NH2 [S2-short2]
- N1 [1, 8]: 0.72 ± 0.03
- ΔH1 [1, 8]: –9.7 ± 0.21 kcal/mol
- –T · ΔS1 [1, 8]: 0.9 kcal/mol
- N2 [1, 9]: 0.91 ± 0.02
- ΔH2 [1, 9]: –5.5 ± 0.34 kcal/mol
- –T · ΔS2 [1, 9]: –1.9 kcal/mol

Substance: SGLVTRGS-NH2 [SlpA linker P5T]
- Kd [1]: 130 ± 20 µM
- N2 [1, 10]: 1.76 ± 0.12
- ΔH2 [1, 10]: –0.9 ± 0.10 kcal/mol
- –T · ΔS2 [1, 10]: –4.4 kcal/mol

Substance: TRYANPKMKPFIFGA-NH2 [S2-W23A]
- N2 [2]: 0.77 ± 0.02
- ΔH2 [2]: –8.1 ± 0.25 kcal/mol
- –T · ΔS2 [2]: 1.6 kcal/mol
- Kd [2]: 17.1 ± 1.13 µM
- ΔH1 ([1]; ITC two-site model, 25 °C): –15.8 ± 0.24 kcal/mol
- –T · ΔS1 ([1]; ITC two-site model, 25 °C): 7.5 kcal/mol
- N2 [1, 6]: 0.91 ± 0.40
- ΔH2 [1, 7]: –2.3 ± 0.97 kcal/mol
- –T · ΔS2 [1, 7]: –4.2 kcal/mol

Substance: TRYWNAKMKEFIFGA-NH2 [S2-P25A/P29E]
- N2 ([2]; 5 % DMSO): 0.84 ± 0.06
- ΔH2 ([2]; 5 % DMSO): –6.3 ± 0.58 kcal/mol
- –T · ΔS2 ([2]; 5 % DMSO): 0.1 kcal/mol
- Kd ([2]; 5 % DMSO): 29 ± 4.62 µM
- N1 [1, 11]: 1.13 ± 0.03
- ΔH1 [1, 11]: –14.1 ± 0.33 kcal/mol
- –T · ΔS1 [1, 11]: 6.1 kcal/mol
- N2 [1, 12]: 1.09 ± 0.24
- ΔH2 [1, 12]: –5.9 ± 1.91 kcal/mol
- –T · ΔS2 [1, 12]: –0.1 kcal/mol

Substance: TRYWNAKMKPFIFGA-NH2 [S2-P25A]
- relative population of the cis form (cis content) [3]: 14.5 ± 1%
- kcat/KM ([4]; S2-P25A as substrate (cis concentration), 0.2 μM enzyme, Michaelis-Menten fitting): 3.68 ± 0.04 10^8 M^−1s^−1 and 3.7 10^8 M^−1s^−1
- kcat ([4]; S2-P25A as substrate): 0.7 ± 0.1 10^6 s^–1
- kcat/KM [4, 13]: 368 ± 4 μM^–1s^–1
- kcat/KM ([5]; S2-P25A as substrate (cis concentration), 0.2 μM enzyme): 2.5 10^8 M^−1s^−1
- kcat/KM [5, 13]: 248 ± 1 μM^–1s^–1
- N2 [2]: 0.91 ± 0.01
- ΔH2 [2]: –11.7 ± 0.24 kcal/mol
- –T · ΔS2 [2]: 5.0 kcal/mol
- Kd [2]: 12.1 ± 0.76 µM
- ΔH1 ([1]; ITC two-site model, 25 °C): –16.6 ± 0.16 kcal/mol
- –T · ΔS1 ([1]; ITC two-site model, 25 °C): 7.2 kcal/mol
- N2 [1, 6]: 1.02 ± 0.04
- ΔH2 [1, 7]: –8.5 ± 0.82 kcal/mol
- –T · ΔS2 [1, 7]: 1.5 kcal/mol

Substance: TRYWNNKMKNFIFGA-NH2 [S2-P25N/P29N]
- N1 [1, 11]: 0.93 ± 0.02
- ΔH1 [1, 11]: –16.8 ± 0.12 kcal/mol
- –T · ΔS1 [1, 11]: 7.8 kcal/mol
- N2 [1, 12]: 1.18 ± 0.18
- ΔH2 [1, 12]: –2.3 ± 0.33 kcal/mol
- –T · ΔS2 [1, 12]: –4.4 kcal/mol

Substance: TRYWNPKMKEFIFGA-NH2 [S2-P29E]
- N2 [2]: 0.69 ± 0.03
- ΔH2 [2]: –10.8 ± 0.27 kcal/mol
- –T · ΔS2 [2]: 4.2 kcal/mol
- Kd [2]: 13.8 ± 0.88 µM
- ΔH1 ([1]; ITC two-site model, 25 °C): –15.8 ± 0.16 kcal/mol
- –T · ΔS1 ([1]; ITC two-site model, 25 °C): 7.2 kcal/mol
- N2 [1, 6]: 1.02 ± 0.04
- ΔH2 [1, 7]: –2.7 ± 0.48 kcal/mol
- –T · ΔS2 [1, 7]: –4.5 kcal/mol

Substance: VHFGHQTRYWNPKMK-NH2 [S2-minus2]
- ΔH1 ([1]; ITC two-site model, 25 °C): –16.1 ± 0.21 kcal/mol
- –T · ΔS1 ([1]; ITC two-site model, 25 °C): 8.1 kcal/mol
- N2 [1, 6]: 0.99 ± 0.06
- ΔH2 [1, 7]: –4.3 ± 0.92 kcal/mol
- –T · ΔS2 [1, 7]: –2.3 kcal/mol

Substance: WNPKMKPFIFGARNK-NH2 [S2-plus1]
- ΔH1 ([1]; ITC two-site model, 25 °C): –11.4 ± 0.13 kcal/mol
- –T · ΔS1 ([1]; ITC two-site model, 25 °C): 2.3 kcal/mol
- N2 [1, 6]: 0.94 ± 0.03
- ΔH2 [1, 7]: –7.8 ± 0.23 kcal/mol
- –T · ΔS2 [1, 7]: 0.4 kcal/mol

Substance: YWNPKMKPFIF-NH2 [S2-short4]
- N1 [1, 8]: 0.73 ± 0.24
- ΔH1 [1, 8]: –10.7 ± 2.33 kcal/mol
- –T · ΔS1 [1, 8]: 2.7 kcal/mol
- N2 [1, 9]: 0.87 ± 0.23
- ΔH2 [1, 9]: –6.3 ± 3.02 kcal/mol
- –T · ΔS2 [1, 9]: –0.9 kcal/mol
